Test results published in patent US11413285B2, “PDE III inhibitors for treatment of asymptomatic heart failure” (priority 2004, dated 2022).
Counter-ions that a name gives are not always drawn. Like-named read-outs stand apart in the source and are kept apart here.

How the values were obtained:
[1] = tested on: dogs with clinically overt heart failure due to valve insufficiency; assay: Double-blind randomized positive controlled multi-centre field trial, pimobendan versus benazepril; format: in vivo, dog; details: for dogs that died or were euthanised due to cardiac reasons: 56-days study period, 41 dogs pimobendan group, 35 dogs benazepril group; for ISACHC classification Ib (Score=2), no clinical symptoms, share of cases / overall efficacy rated as very good or good, share of cases: Day 56; for ISACHC heart failure classification improved, share of cases: after the 56 day treatment period; for median survival time: long-term survival data
Method: A double-blind randomized positive controlled multi-centre field trial has been carried out in order to evaluate the clinical efficacy of pimobendan treatment at a daily dose of 0.4-0.6 mg/kg in comparison to an angiotensin-converting-enzyme (ACE) inhibitor treatment with benazepril hydrochloride at a daily dose of approximately 0.25-0.5 mg/kg body weight. Both treatments could be combined with furosemide (up to 8 mg/kg per day) or anti-arrhythmic drugs as appropriate. The study was conducted at 11 centers in Europe by experienced veterinary cardiologists under the rules of Good Clinical Practice (GCP). Mandatory minimum duration of treatment was 56 days for each patient. Dogs were examined on Day 0 prior to first treatment and on Day 7 and 56 after initiation of therapy. In order to obtain long-term survival data, the investigator had the option to continue therapy after Day 56. In the optional study period treatment code for the animal was decoded, as it was not allowed to add pimobendan to the benazepril group, in order to maintain an appropriate […] control group. All other licensed concomitant therapies were allowed. For survival analysis, animals that dropped out or changed treatment due to therapy failure were also rated as dead. However, these cases were statistically evaluated as censored data.
Primary parameter for conclusion on efficacy was the clinical severity of heart failure symptoms, classified according to the recommendations of the International Small Animal Cardiac Health Council (ISACHC). Secondary parameters were exercise tolerance, demeanor, findings of the respiratory and circulatory system, overall efficacy rating, as well as, echocardiography data.
Overall 76 dogs, 41 dogs in the pimobendan group and 35 dogs in the benazepril group were included. […] Mean duration of symptoms prior to inclusion was 4.05 months in the pimobendan and 2.77 months in the benazepril group. There were no clinically relevant differences between the groups prior to initiation of therapy in any of the parameters investigated.
The radiographs have been made in a left to right lateral view. For the determination of cardiac size a vertebral scale system was used.
In the lateral radiographs, the long axis of the heart (L) was measured with a caliper extending from the ventral aspect of the left main stem bronchus (tracheal bifurcation hilus, carina) to the most distant contour of the left ventricular apex. The caliper was repositioned along the vertebral column beginning at the cranial edge of the 4th thoracic vertebra. The length of the heart was recorded as the number of vertebrae caudal of that point and estimated to the nearest 0.1 of a vertebra. The maximum perpendicular short axis (S) was measured in the same manner beginning at the 4th thoracic vertebra.
The length in vertebrae (v) of the long and short axes were then added to obtain a vertebral heart sum (VHS) which provided a single number representing heart size proportionate to the size of the dog. The normal range of VHS in healthy dogs is 8.5 v to 10.5 v (mean of 9.7 v).

dogs with DCM = dogs with DCM in the LIVE study; cited from earlier work
[2] = tested on: Cocker spaniels and Dobermanns with DCM; details: for mean survival time / survival time, range: in addition to digoxin, enalapril, furosemide
From the text: A double-blind study has been carried out in order to evaluate the long-term efficacy and tolerance to pimobendan and its effect on long-term survival in cocker spaniels and Dobermanns with DCM.
Materials and Methods: Cocker spaniels (n=10) and Dobermanns (n=10) presenting to the Cardiopulmonary Service of the R(D)SVS with DCM were recruited for the study with owners' consent. After stabilization on conventional therapy with digoxin, enalapril, and furosemide, dogs received in addition either pimobendan (Vetmedin®) or placebo using a double-blind study design.

[3] = tested on: dogs suffering of occult dilated cardiomyopathy; assay: Study in dogs with occult dilated cardiomyopathy (ISACHC class I); format: in vivo, dog
From the text: A study is done with pimobendan ([…]®) in dogs suffering of occult dilated cardiomyopathy. Inclusion criteria were dogs which are diagnosed to have a congestive heart failure of class I according to the […]-score due to dilated cardiomyopathy (DCM). Dogs having a having an asymptomatic (occult) heart failure, e.g. asymptomatic DCM must have reduced contractility of the heart or other signs of reduced cardiac efficacy such as volume overload or ventricle dilatation as confirmed by echocardiography. The dogs stay under mono-therapy until signs of congestive heart failure are developing, deteriorate to heart insufficiency score ([…]) class II or III a or b. After confirmation of the congestion by X-ray-radiography the dogs receive furosemid treatment or if the clinical or echocardiographic results makes the addition of another heart failure treatment necessary (primary endpoint). The dogs will be investigated at day 0 prior to first treatment and then approximately 3 month post initiation of the therapy. […] An Echo is performed prior to initiation of therapy (Day 0) and at the following visits to support the clinical diagnosis and to evaluate the effect of the drugs on the contractility of the heart. The echocardiography is performed according to the cardiologic case report form for Irish Wolfhounds. The primary parameter investigated will be the heart insufficiency score ([…]). […]

[4] = tested on: human patients with heart failure; details: long-term oral use; cited from earlier work
[5] = Visit 1 (Day 0, prior to first treatment)

For `CCOC(=O)[C@H](CCc1ccccc1)N[C@H]1CCc2ccccc2N(CC(=O)O)C1=O` [benazepril, benazepril hydrochloride], the “dogs that died or were euthanised due to cardiac reasons” value [1] was 7 dogs, the “ISACHC classification Ib (Score=2), no clinical symptoms, share of cases” value [1] was 48% and the “overall efficacy rated as very good or good, share of cases” value [1] was 41%. For the same compound, the “ISACHC heart failure classification improved, share of cases” value [1] was 56% and the median survival time [1] was 228 days.
In the case of `CCOC(=O)[C@H](CCc1ccccc1)N[C@@H](C)C(=O)N1CCC[C@H]1C(=O)O` [enalapril], the “time to treatment failure” value (dogs with DCM) is given as 142.8 days.
With `COc1ccc(-c2nc3ccc(C4=NNC(=O)CC4C)cc3[nH]2)cc1` (stereo not drawn) [pimobendan, 4,5-dihydro-6-[2-(4-methoxyphenyl)-1H-benzimidazol-5-yl]-5-methyl-3(2H)-p-yridazone] the mean survival time ([2]; Dobermanns with DCM) was 280 days, the “survival time, range” value ([2]; Dobermanns with DCM) was 42 to 369 days and the “NYHA-class status of the patient” value ([2]; both breeds, addition to standard treatment regimen) was “significant improvement”. The mean survival time ([2]; cocker spaniels with DCM) was 612 days, the “survival time, range” value ([2]; cocker spaniels with DCM) was 61 to 1428 days and the “tolerance / treatment-related adverse effects” value ([2]; dog, in vivo) was “well tolerated and no treatment-related adverse effects were noted”. For the same compound, the “dogs that died or were euthanised due to cardiac reasons” value [1] was 2 dogs, the “ISACHC classification Ib (Score=2), no clinical symptoms, share of cases” value [1] was 76% and the “overall efficacy rated as very good or good, share of cases” value [1] was 85%. The “vertebral heart sum, Max.” value [1, 5] was 14.5 v, the “vertebral heart sum, Mean” value [1, 5] was 11.83 v and the “vertebral heart sum, Median” value [1, 5] was 11.60 v. For the same compound, the “vertebral heart sum, Min.” value [1, 5] was 9 v, the “vertebral heart sum, Max.” value ([1]; Visit 3 (Day 56)) was 14.1 v and the “vertebral heart sum, Mean” value ([1]; Visit 3 (Day 56)) was 11.71 v. The “vertebral heart sum, Median” value ([1]; Visit 3 (Day 56)) was 11.60 v, the “vertebral heart sum, Min.” value ([1]; Visit 3 (Day 56)) was 9.0 v and the “change in mean heart size (vertebral heart sum), Mean” value ([1]; Visit 3-1 (Day 56 minus Day 0)) was −0.15 v. The “vertebral heart sum, change from baseline, Max.” value ([1]; Visit 3-1 (Day 56 minus Day 0)) was 0.8 v, the “vertebral heart sum, change from baseline, Median” value ([1]; Visit 3-1 (Day 56 minus Day 0)) was 0.00 v and the “vertebral heart sum, change from baseline, Min.” value ([1]; Visit 3-1 (Day 56 minus Day 0)) was −1.9 v. For the same compound, the “ISACHC heart failure classification improved, share of cases” value [1] was 84%, the median survival time [1] was 430 days and the “Left Ventricular Reverse Remodeling (LVRR), share of treated dogs” value ([3]; dogs with asymptomatic DCM) was ~80%. For the same compound, the “dogs that went into the state of clinical symptoms (Class II)” value ([3]; interim analysis after 4 years, mono-therapy) was “significantly less dogs”, the effects on survival [4] was “without significantly adverse effects on survival” and the “exercise tolerance and quality of life” value [4] was “improvement in exercise tolerance and quality of life”.
